# How the values were obtained:
# [1] = biological target: T1, RNA-directed RNA polymerase (Hepacivirus hominis, UniProt O39930); assay: Displacement of 5 uM UTP from NS5B in Hepatitis C virus
# [2] = biological target: RNA-directed RNA polymerase (Hepacivirus hominis, UniProt O39930, G152E); assay: Inhibition of NS5B G152E mutant-mediated RNA synthesis in Hepatitis C virus as decrease in formation of full-length product after 45 mins
# [3] = biological target: RNA-directed RNA polymerase (Hepacivirus hominis, UniProt O39930, P156L); assay: Inhibition of NS5B P156L mutant-mediated RNA synthesis in Hepatitis C virus as decrease in formation of full-length product after 45 mins
# Chain of RNA-directed RNA polymerase (Hepacivirus hominis, UniProt O39930, P156L) (O39930 entry or part of it P156L): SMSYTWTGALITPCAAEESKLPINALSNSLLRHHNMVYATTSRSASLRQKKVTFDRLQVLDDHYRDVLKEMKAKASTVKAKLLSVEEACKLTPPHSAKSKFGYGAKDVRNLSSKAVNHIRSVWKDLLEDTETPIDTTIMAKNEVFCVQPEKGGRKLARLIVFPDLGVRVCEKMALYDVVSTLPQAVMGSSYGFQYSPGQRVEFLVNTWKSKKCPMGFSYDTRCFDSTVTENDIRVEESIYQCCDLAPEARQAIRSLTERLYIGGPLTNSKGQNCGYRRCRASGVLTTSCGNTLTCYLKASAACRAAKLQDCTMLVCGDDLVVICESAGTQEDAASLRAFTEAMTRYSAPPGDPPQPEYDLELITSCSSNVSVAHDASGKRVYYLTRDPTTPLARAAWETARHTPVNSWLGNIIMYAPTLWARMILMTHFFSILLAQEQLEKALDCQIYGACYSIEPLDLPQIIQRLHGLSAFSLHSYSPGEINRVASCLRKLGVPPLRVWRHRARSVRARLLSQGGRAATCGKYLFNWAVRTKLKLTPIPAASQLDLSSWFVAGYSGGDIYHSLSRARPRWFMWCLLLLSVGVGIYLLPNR
# [4] = biological target: T1, RNA-directed RNA polymerase; assay: Displacement of 100 uM PPi from NS5B in Hepatitis C virus
# [5] = biological target: T1, RNA-directed RNA polymerase; assay: Displacement of 0.1 uM UTP from NS5B in Hepatitis C virus
# [6] = biological target: T1, RNA-directed RNA polymerase; assay: Displacement of 50 uM PPi from NS5B in Hepatitis C virus
# [7] = biological target: T1, RNA-directed RNA polymerase; assay: Displacement of 1 uM UTP from NS5B in Hepatitis C virus
# [8] = biological target: T1, RNA-directed RNA polymerase; assay: Displacement of 500 uM PPi from NS5B in Hepatitis C virus
# [9] = biological target: T1, RNA-directed RNA polymerase; assay: Inhibition of NS5B-mediated RNA synthesis in Hepatitis C virus assessed as decrease in formation of full-length product after 45 mins
# T1 sequence (O39930 whole entry): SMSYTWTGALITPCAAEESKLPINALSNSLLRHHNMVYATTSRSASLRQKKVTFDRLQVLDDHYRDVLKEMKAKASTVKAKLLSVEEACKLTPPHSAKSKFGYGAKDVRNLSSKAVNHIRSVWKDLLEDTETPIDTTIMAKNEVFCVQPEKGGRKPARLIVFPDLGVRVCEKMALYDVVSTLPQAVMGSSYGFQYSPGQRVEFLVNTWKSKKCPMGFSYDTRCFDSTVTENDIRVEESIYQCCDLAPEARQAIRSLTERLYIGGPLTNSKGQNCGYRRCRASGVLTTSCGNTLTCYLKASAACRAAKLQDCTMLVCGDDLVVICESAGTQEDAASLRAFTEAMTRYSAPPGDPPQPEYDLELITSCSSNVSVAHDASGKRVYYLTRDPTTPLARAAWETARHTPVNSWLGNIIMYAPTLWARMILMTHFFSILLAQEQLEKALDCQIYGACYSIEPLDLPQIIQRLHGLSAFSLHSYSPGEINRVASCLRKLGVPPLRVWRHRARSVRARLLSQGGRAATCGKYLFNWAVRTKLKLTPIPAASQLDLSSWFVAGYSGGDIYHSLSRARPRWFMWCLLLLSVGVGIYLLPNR
# Chain of RNA-directed RNA polymerase (Hepacivirus hominis, UniProt O39930, G152E) (O39930 entry or part of it G152E): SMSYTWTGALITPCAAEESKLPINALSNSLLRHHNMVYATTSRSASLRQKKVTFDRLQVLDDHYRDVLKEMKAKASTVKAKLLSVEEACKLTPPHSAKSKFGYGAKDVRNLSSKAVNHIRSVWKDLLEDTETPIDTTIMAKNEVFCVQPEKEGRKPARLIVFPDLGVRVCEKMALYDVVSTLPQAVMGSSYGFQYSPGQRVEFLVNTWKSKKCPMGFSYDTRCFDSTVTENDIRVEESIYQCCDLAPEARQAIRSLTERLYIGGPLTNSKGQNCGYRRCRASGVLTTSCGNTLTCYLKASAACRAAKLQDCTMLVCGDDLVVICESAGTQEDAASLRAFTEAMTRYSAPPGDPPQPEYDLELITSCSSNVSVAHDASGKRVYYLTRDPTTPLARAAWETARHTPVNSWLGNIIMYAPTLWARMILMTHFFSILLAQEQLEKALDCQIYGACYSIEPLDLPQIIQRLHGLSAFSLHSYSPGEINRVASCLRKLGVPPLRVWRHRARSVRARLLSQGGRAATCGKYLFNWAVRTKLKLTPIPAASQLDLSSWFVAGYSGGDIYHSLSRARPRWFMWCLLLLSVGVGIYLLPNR
compound,measurement,setting,value
O=C(Nc1ccsc1-c1nc(O)c(O)c(C(=O)O)n1)OCc1c(Cl)cccc1Cl,IC50,[1],> 1 µM
same,IC50,[2],3.78 µM
same,IC50,[3],5.39 µM
same,IC50,[4],0.302 µM
same,IC50,[5],0.258 µM
same,IC50,[6],0.174 µM
same,IC50,[7],> 0.5 µM
same,IC50,[8],0.882 µM
same,IC50,[9],0.73 µM

# Reference: ChEMBL document CHEMBL1255387, “Mechanism of hepatitis C virus RNA polymerase inhibition with dihydroxypyrimidines” (Antimicrob Agents Chemother, 2010)
